Patent US20050214898A1, “Methods of carotenoid production in bacteria” (priority 2004, published 2005)
Values joined by “and” are separate entries in the source; they are usually repeats but may differ in a detail not shown here. Identical values can stand only once. “Also recorded” adds a separate entry of the source.

Experiments:
[1] = system: F. multivorum; assay: Effect of TCA cycle intermediates in the growth medium on zeaxanthin production; format: cell-based, Flavobacterium multivorum; details: growth medium supplemented with TCA intermediate
Procedure: (§1) Pigment extraction from bacterial cells. One ml of culture broth was centrifuged at 5000 rpm for 10 min at 4° C. The supernatant was discarded and media components of the cell pellet were washed away by repeated suspension in sterile distilled water and centrifugation. The cell mass was subjected to sonication using a sonic dismembrator (Fisher Scientific, Model number F60) in the presence of 1 ml cold, oxygen-free methanol containing 0.01% butylated hydroxy toluene (BHT) (w/v) for 30 seconds (output power 5). Methanol extraction was repeated for complete extraction of carotenoids. The sonicated sample was centrifuged to remove the white cell pellet. The supernatant contains extracted carotenoids.
(§2) High performance liquid chromatography (HPLC). The pigments in methanol were dried by vacuum evaporation in a Speedvac Plus (SC 110, Savant) and re-dissolved in one ml of HPLC mobile phase (hexane: dichloromethane: methanol: N,N′-di-isopropylethylamine (80:19.2:0.7:0.1 v/v)). HPLC separation was carried out at a flow rate of 1.0 ml min^−1 on a cyano column (Microsorb 25 cm length×4.6 mm id, Rainin Instrument Co. Woburn, Mass., U.S.A.). The column was maintained at room temperature and the HPLC detector was operated at 450 nm.
Media optimization for zeaxanthin production.

[2] = system: F. multivorum ATCC 55238; assay: Effect of salt supplementation of the basal medium on growth and carotenoid production (shake flask); format: cell-based, Flavobacterium multivorum; details: for effect on growth: basal medium supplemented with salt; for effect on the volumetric production of β-carotene / β-carotene as proportion of the total carotenoid content: basal medium supplemented with salt 250 mg/100 ml
Procedure: as §1
as §2, with “nm. Peak identities were confirmed by photodiode-array spectra and by coelution with authentic standards as necessary.” for “nm.”
Cell growth measurement. Cell growth was monitored by measurement of turbidity at […] with a UV-visible spectrophotometer (Smart Spec™ 3000, BioRad). Samples were suitably diluted (so as to have absorbance of between 0.2 to 0.8) with double distilled water. The absorbance was measured immediately at 500 nm. For cell dry weight (CDW) estimation, the 10 ml sample was centrifuged at 10,000 g for 10 minutes and washed twice with double distilled water by suspension and centrifugation. The supernatant was discarded and the cell pellet was taken to constant weight in an oven at 80° C.
Effect of salt supplementation. F. multivorum was studied for growth and carotenoid production in the liquid basal medium supplemented with the salts listed in Table 1 (see, FIG. 7) (250 mg/100 ml) to evaluate the effect of mineral salts. The F. multivorum cultures were grown in quadruplicate in shake flask cultures at 30° C. on a rotary shaker rotates at 250 rpm.

In the case of O=C(O)CC(C(=O)O)C(O)C(=O)O (stereo not drawn) [Isocitric acid, isocitric acid], the “effect on the volumetric production of zeaxanthin” value [1] is reported as “maximum stimulatory effect”.
With [Cl-].[Li+] [Lithium chloride] the “maximum β-carotene level (proportion of total carotenoid)” value ([2]; at 24 h of growth phase) was 44 %, w/w and the “β-carotene level (proportion of total carotenoid)” value ([2]; end of fermentation (48 h)) was 21 % (w/w).
In the case of NC(N)=O [Urea, urea], the effect on growth [2] is reported as “minor inhibition on growth”, the “effect on the volumetric production of β-carotene” value (from here on “effect … of β-carotene”) [2] is reported as “maximum stimulatory effect” and the “β-carotene as proportion of the total carotenoid content” value (“β-carotene as proportion” for short) [2] is reported as 66 % (w/w). For the same compound, the “effect … of β-carotene” value ([2]; listed as urea) was “positive effect” and the “β-carotene as proportion” value ([2]; listed as urea) was 70 % (w/w).
[Ca+2].[Cl-].[Cl-] [calcium chloride] was tested, and the effect on growth [2] was “minor inhibition on growth”, the “effect … of β-carotene” value [2] was “maximum stimulatory effect” and the “β-carotene as proportion” value [2] was 52 % (w/w).
For O=C(O)CC(O)C(=O)O (stereo not drawn) [malic acid], the “effect on the volumetric production of zeaxanthin” value [1] was “maximum stimulatory effect”.
For O=C([O-])[O-].[Na+].[Na+] [sodium carbonate], the effect on growth [2] was “minor inhibition on growth”, the “effect … of β-carotene” value [2] was “positive effect; also recorded: maximum stimulatory effect” and the “β-carotene as proportion” value [2] was 70 % (w/w) and 69 % (w/w).
